Data on 13 compounds can be found in patent US20020010186A1, “Dihydropyrimidines and uses thereof” (Synaptic Pharmaceutical Corporation, priority 1996, published 2002).

One series addresses T1, human α1D receptor (Homo sapiens, UniProt P25100).
T1 sequence (P25100 1-572): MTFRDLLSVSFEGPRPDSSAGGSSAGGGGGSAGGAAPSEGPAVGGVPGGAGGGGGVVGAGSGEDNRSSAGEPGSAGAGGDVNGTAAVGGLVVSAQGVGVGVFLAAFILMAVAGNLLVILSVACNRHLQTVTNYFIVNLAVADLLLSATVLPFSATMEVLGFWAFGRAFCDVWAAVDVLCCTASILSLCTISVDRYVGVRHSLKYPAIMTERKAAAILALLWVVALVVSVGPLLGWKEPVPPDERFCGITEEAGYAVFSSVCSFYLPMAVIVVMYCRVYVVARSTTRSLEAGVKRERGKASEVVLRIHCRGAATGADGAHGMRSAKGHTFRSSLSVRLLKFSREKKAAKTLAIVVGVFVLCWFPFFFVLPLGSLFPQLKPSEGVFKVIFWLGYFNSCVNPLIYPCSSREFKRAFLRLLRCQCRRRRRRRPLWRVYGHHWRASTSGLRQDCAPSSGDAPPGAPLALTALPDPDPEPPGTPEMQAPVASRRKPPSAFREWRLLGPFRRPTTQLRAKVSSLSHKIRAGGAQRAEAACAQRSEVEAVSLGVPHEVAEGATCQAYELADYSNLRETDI
Nature of the series: Radioligand binding assay ([3H]prazosin) at cloned human α1D adrenergic receptor. The settings on record: membranes of LM(tk-) cells, [3H]prazosin 0.5 nM; for Ki: read-out: hα1d pKi (converted). How it is done:
(§1) These cell lines were prepared by transfecting the cloned cDNA or cloned genomic DNA or constructs containing both genomic DNA and cDNA encoding the human u-adrenergic receptors as follows:
The cells were grown, in a controlled environment ([…]., 5% CO2), as monolayers in Dulbecco's modified Eagle's Medium (GIBCO, Grand Island, N.Y.) containing 25 mM glucose and supplemented with 10% bovine calf serum, 100 units/ml penicillin g, and 100 μg/ml streptomycin sulfate.
(§2) The construct involved ligating three partial overlapping fragments: a 5′ 0.6 kb HincII genomic clone, a central 1.8 EcoRI hippocampal cDNA clone, and a 3′ 0.6Kb PstI genomic clone. The hippocampal cDNA fragment overlaps with the 5′ and 3′ genomic clones so that the HincII and PstI sites at the 5′ and 3′ ends of the cDNA clone, respectively, were utilized for ligation. This full-length clone was cloned into the KpnI site of the expression vector, using the 5′ and 3′ KpnI sites of the fragment, derived from vector (i.e., pBluescript) and 3′-untranslated sequences, respectively. Stable cell lines were selected as described above. […] Radioligand Binding Assays: Transfected cells from culture flasks were scraped into 5 ml of 5 mM Tris-HCl, 5 mM EDTA, pH 7.5, and lysed by sonication. The cell lysates were centrifuged at 1000 rpm for 5 min at 4° C., and the supernatant was centrifuged at 30,000×g for 20 min at 4° C. The pellet was suspended in 50 mM Tris-HCl, 1 mM MgCl2, and 0.1% ascorbic acid at pH 7.5. Binding of the al antagonist [^3H]prazosin (0.5 nM, specific activity 76.2 Ci/mmol) to membrane preparations of LM(tk-) cells was done in a final volume of 0.25 ml and incubated at 37° C. for 20 min. Nonspecific binding was determined in the presence of 10 μM phentolamine. The reaction was stopped by filtration through GF/B filters using a cell harvester.

The target of a further series is T2, human α1A receptor (Homo sapiens, UniProt P35348).
T2 sequence (P35348 1-466): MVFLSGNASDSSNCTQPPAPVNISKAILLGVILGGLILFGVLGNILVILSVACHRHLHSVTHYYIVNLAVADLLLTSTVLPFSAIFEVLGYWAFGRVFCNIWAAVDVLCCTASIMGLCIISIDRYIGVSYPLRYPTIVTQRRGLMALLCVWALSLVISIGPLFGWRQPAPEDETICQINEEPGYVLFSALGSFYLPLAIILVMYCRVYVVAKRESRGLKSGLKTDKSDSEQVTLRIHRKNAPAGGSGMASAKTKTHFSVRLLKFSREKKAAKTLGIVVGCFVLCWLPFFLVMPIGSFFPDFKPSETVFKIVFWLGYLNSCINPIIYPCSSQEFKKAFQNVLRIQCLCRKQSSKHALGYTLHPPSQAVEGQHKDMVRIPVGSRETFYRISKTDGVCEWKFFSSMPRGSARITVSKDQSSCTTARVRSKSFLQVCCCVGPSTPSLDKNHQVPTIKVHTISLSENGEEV
The experiment in a line: Radioligand binding assay ([3H]prazosin) at cloned human α1A adrenergic receptor. The following applies: membranes of LM(tk-) cells, [3H]prazosin 0.5 nM; for Ki: read-out: hα1a pKi (converted). How it is done: as §1, §2

A further series deals with T3, human α1B receptor (Homo sapiens, UniProt P35368).
T3 sequence (P35368 1-520): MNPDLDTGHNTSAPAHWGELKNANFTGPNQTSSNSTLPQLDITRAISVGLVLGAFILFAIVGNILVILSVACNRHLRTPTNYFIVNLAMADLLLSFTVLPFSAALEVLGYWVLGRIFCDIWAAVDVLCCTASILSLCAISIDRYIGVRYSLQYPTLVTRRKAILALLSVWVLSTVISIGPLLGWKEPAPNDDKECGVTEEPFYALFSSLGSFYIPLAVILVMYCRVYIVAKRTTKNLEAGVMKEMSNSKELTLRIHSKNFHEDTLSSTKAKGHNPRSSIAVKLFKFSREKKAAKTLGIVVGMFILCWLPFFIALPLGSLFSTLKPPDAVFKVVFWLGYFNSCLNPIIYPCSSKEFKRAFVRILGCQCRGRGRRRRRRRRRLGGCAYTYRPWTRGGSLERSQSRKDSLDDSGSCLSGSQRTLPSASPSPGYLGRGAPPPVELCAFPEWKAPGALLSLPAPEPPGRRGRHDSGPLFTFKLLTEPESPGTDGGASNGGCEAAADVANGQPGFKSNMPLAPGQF
Nature of the series: Radioligand binding assay ([3H]prazosin) at cloned human α1B adrenergic receptor. The settings on record: membranes of LM(tk-) cells, [3H]prazosin 0.5 nM; for Ki: read-out: hα1b pKi (converted). How it is done: as §1
The construct involved ligating the full-length containing EcoRI brainstem cDNA fragment from λ ZapII into the expression vector. Stable cell lines were selected as described above.
as §2

Where a name gives a salt, the structure may show the parent alone.

The term melting point denotes the temperature of the solid-liquid transition. Regarding `COC(=O)N1C(C)=NC(C)=C(C(=O)NCCCN2CCC(C(=O)OC)(c3ccccc3)CC2)C1c1ccc(F)c(F)c1` (centres unmarked), the melting point fell in the range of 55 to 57 °C.

For `COCN1C(C)=NC(C)=C(C(=O)NCCCN2CCC(C(=O)OC)(c3ccccc3)CC2)C1c1ccc(F)c(F)c1` (centres unmarked), the melting point lay within 53 to 57 °C.

On to `COCC1=C(C(=O)OC)C(c2ccc(F)c(F)c2)N(C(=O)NCCCN2CCC(c3ccccc3)(c3cccs3)CC2)C(=O)N1` (centres unmarked), for which the melting point lay in the range of 157 to 159 °C.

Compound `COCC1=C(C(=O)OC)C(c2ccc(F)c(F)c2)N(C(=O)NCCCN2CCC(c3ccccc3)(c3ccco3)CC2)C(=O)N1` (centres unmarked) yielded a melting point of 153 to 155 °C.

`COCC1=NC(C)=C(C(=O)OC)C(c2ccc(F)c(F)c2)N1CCCCCN1CCC(c2ccc(C)cc2)(c2ccccc2C)CC1` (centres unmarked) (as salt: HCl) yielded a melting point of 137 to 140 °C.

Turning to `COC(=O)C1=C(C)N=C(C)N(CCCCCN2CCC(C(=O)OC)(c3ccccc3)CC2)C1c1ccc(F)c(F)c1` (centres unmarked) (as salt: HCl) [Example 17, 6-(3,4-Difluorophenyl)-1,6-dihydro-5-methoxycarbonyl-1-(5-(4-methoxycarbonyl-4-phenylpiperidin-1-yl)-pentyl)-2,4-dimethylpyrimidine], the melting point lay in the range of 170 to 176 °C.

In turn, `COC(=O)C1=C(C)N=C(C)N(CCCCCNCCCc2ccccc2)C1c1ccc(F)c(F)c1` (centres unmarked) (as salt: HCl) [Example 55, 6-(3,4-Difluorophenyl)-1,6-dihydro-5-methoxycarbonyl-2,4-dimethyl-1-(5-(3-phenylpropylamino)pentyl)-pyrimidine] gave a melting point of 95 to 97 °C.

In turn, `COC(=O)C1=C(C)NC(=O)N(C(=O)NCCCN2CCC(c3ccccn3)CC2)C1c1ccc(F)c(F)c1` (centres unmarked) (as salt: hydrochloride) [Example 15, 6-(3,4-Difluorophenyl)-5-methoxycarbonyl-4-methyl-2-oxo-1-{N-[4-(2-pyridyl)-piperidine-1-yl]propyl}carboxamido-1,2,3,6-tetrahydropyrimidine Dihydrochloride] displayed a melting point of 170 to 174 °C.

`COC(=O)C1=C(C)N=C(C)N(CCCC(O)CN2CCC(c3ccccn3)CC2)C1c1ccc(F)c(F)c1` (single isomer, unassigned; (+)) (as salt: HCl) [Example 56, (+)-6-(3,4-Difluorophenyl)-1,6-dihydro-1-(4-hydroxy-5-(4-(2-pyridyl)piperidin-1-yl)pentyl)-5-methoxycarbonyl-2,4-dimethylpyrimidine]: the melting point fell in the range of 163 to 165 °C.

With `CCC1=C(C(N)=O)C(c2ccc(F)c(F)c2)N(C(=O)NCCCN2CCC(C(=O)OC)(c3ccccc3)CC2)C(=O)N1` (single isomer, unassigned; (+)) [Example 14, (+)-5-Carboxamido-6-(3,4-difluorophenyl)-4-ethyl-1-{N-[3-(4-methoxycarbonyl-4-phenylpiperidin-1-yl)propyl]}carboxamido-2-oxo-1,2,3,6-tetrhydropyrimidine], at human α1D receptor, the “hα1d pKi” value is listed as 6.46. Moreover, the “hα1a pKi” value at human α1A receptor is 9.68. For the same compound, the “hα1b pKi” value on human α1B receptor stood at 6.59.

Consider `COC(=O)C1=C(C)NC(=O)N(C(=O)NCCCN2CCC(c3ccccn3)CC2)C1c1ccc(F)c(F)c1` (centres unmarked) [Example 15, 6-(3,4-Difluorophenyl)-5-methoxycarbonyl-4-methyl-2-oxo-1-{N-[4-(2-pyridyl)-piperidine-1-yl]propyl}carboxamido-1,2,3,6-tetrahydropyrimidine Dihydrochloride], for which the figures for the Ki at human α1D receptor, on human α1A receptor and on human α1B receptor were 977 nM, 0.389 nM and 468 nM, respectively.

`COC(=O)C1=C(C)NC(=O)N(C(=O)NCCCN2CCC(c3ccccn3)CC2)C1c1ccc2nonc2c1` (centres unmarked) [Example 16, 6-(3,4-Benzofurazan-5-yl)-5-methoxycarbonyl-4-methyl-2-oxo-1-{N-[4-(2-pyridyl)-piperidin-1-yl]propyl}carboxamido-1,2,3,6-tetrahydropyrimidine Dihydrochloride]: the values for the Ki on human α1D receptor, at human α1A receptor and on human α1B receptor were 575 nM, 0.288 nM and 427 nM, respectively.

For `COC(=O)C1=C(C)N=C(C)N(CCCCCN2CCC(C(=O)OC)(c3ccccc3)CC2)C1c1ccc(F)c(F)c1` (centres unmarked) [Example 17, 6-(3,4-Difluorophenyl)-1,6-dihydro-5-methoxycarbonyl-1-(5-(4-methoxycarbonyl-4-phenylpiperidin-1-yl)-pentyl)-2,4-dimethylpyrimidine], the “hα1d pKi” value on human α1D receptor was 6.17. At human α1B receptor, the “hα1b pKi” value was 6.32.
